Activity calls are given as the source filed them. The calls are words filed in the database; no cut-off is given here.
What was measured:
[1] = Haemolytic activity in human RBC assessed as haemolysis at 50 uM for 48 hrs by haemolysis assay; assay type: toxicity, cell-based, Erythrocyte; details: human red blood cells, read-out: Activity
[2] = system: Plasmodium falciparum; test: Antimalarial activity against chloroquine-sensitive Plasmodium falciparum NF54 assessed as inhibition of parasite growth measured after 24 hrs by parasite lactate dehydrogenase (pLDH) assay; assay type: functional, organism-based; details: NF54, 24 h
[3] = Cytotoxicity against HEK293 cells assessed as cell viability incubated for 48 hrs by MTT assay; assay type: toxicity, cell-based; details: human
[4] = Selectivity index, ratio of IC50 for cytotoxicity against HEK293 cells to IC50 for antimalarial activity against chloroquine sensitive Plasmodium falciparum NF54 assessed as inhibition of parasite growth measured after 24 hrs by parasite lactate dehydrogenase (pLDH) assay; assay type: toxicity, cell-based; details: human, HEK293 cells versus Plasmodium falciparum NF54, read-out: Ratio IC50
[5] = system: Plasmodium falciparum; test: Binding affinity to 6xHis tagged recombinant Plasmodium falciparum Hsp70-1 extracted from Escherichia coli assessed as association rate constant (Ka) incubated for 3 mins by SPR analysis
[6] = system: Plasmodium falciparum; test: Binding affinity to 6xHis tagged recombinant Plasmodium falciparum Hsp70-z extracted from Escherichia coli assessed as association rate constant (Ka) incubated for 3 mins by SPR analysis
[7] = Binding affinity to 6xHis tagged recombinant Plasmodium falciparum Hsp70-1 extracted from Escherichia coli assessed as dissociation rate constant (Kd) incubated for 10 mins by SPR analysis
[8] = Binding affinity to 6xHis tagged recombinant Plasmodium falciparum Hsp70-z extracted from Escherichia coli assessed as dissociation rate constant (Kd) incubated for 10 mins by SPR analysis
[9] = Binding affinity to 6xHis tagged recombinant Plasmodium falciparum Hsp70-1 extracted from Escherichia coli assessed as dissociation constant (KD) incubated for 10 mins by SPR analysis
[10] = Binding affinity to 6xHis tagged recombinant Plasmodium falciparum Hsp70-z extracted from Escherichia coli assessed as dissociation constant (KD) incubated for 10 mins by SPR analysis
[11] = system: Plasmodium falciparum; test: Antimalarial activity against chloroquine-sensitive Plasmodium falciparum NF54 assessed as reduction of schizonts at IC50 concentration incubated for 48 hrs by microscopic analysis; assay type: functional, organism-based
[12] = system: Plasmodium falciparum; test: Antimalarial activity against chloroquine-sensitive Plasmodium falciparum NF54 assessed as reduction of second generation rings at IC50 concentration incubated for 48 hrs by microscopic analysis; assay type: functional, organism-based
[13] = system: Plasmodium falciparum; test: Binding affinity to 6xHis tagged recombinant Plasmodium falciparum Hsp70-1 extracted from Escherichia coli by SPR analysis
[14] = system: Plasmodium falciparum; test: Binding affinity to 6xHis tagged recombinant Plasmodium falciparum Hsp70-z extracted from Escherichia coli by SPR analysis
[15] = system: Plasmodium falciparum; test: Antimalarial activity against chloroquine-resistant intra-erythrocytic stage Plasmodium falciparum; assay type: functional, organism-based
[16] = system: Plasmodium berghei; test: In vivo antiplasmodial activity against Plasmodium berghei assessed as growth inhibition at 100 mg/kg measured after 21 days relative to control; assay type: functional; design: scale not given: the % may be the effect or the level left; details: time 21 day
[17] = system: Plasmodium falciparum; test: Antimalarial activity against […] Plasmodium falciparum 3D7 assessed as growth inhibition by isotopic micro drug susceptibility assay; assay type: functional, organism-based
[18] = system: Plasmodium falciparum; test: Antimalarial activity against chloroquine-sensitive Plasmodium falciparum W2 assessed as growth inhibition by isotopic micro drug susceptibility assay; assay type: functional, organism-based

| Structure (SMILES) | hemolysis at 48 h, 50 µM [1] [%] | IC50 [2] [µM] | also measured |
| --- | --- | --- | --- |
| CCN(CC)CCCC(C)Nc1ccnc2cc(Cl)ccc12 (configuration not stated) [CHLOROQUINE] | 0.01 | – | – |
| COc1ccc(-c2cc(-c3ccc(C)cc3)nc(N3CCNCC3)n2)cc1 | 0.01 | 5 | – |
| CCc1ccc(-c2cc(-c3ccc(OC)c(OC)c3)nc(N3CCN(C(=O)/C=C/c4ccccc4)CC3)n2)cc1 | 0.01 | 0.21 | IC50 at 48 h [3]: 3.55 µM; selectivity ratio at 24 h [4]: 16.8; Ka [5]: 7.97 10^6/M.s; Ka [6]: 8.28 10^6/M.s; Kd [7]: 7.72 10^-2(1/s); Kd [8]: 8.97 10^-2(1/s); Kd [9]: 0.00969 µM; Kd [10]: 0.0108 µM; Activity [11]: Active; Activity [12]: Active; Activity [13]: Dose-dependent-effect; Activity [14]: Dose-dependent-effect |
| COc1ccc(-c2cc(-c3ccc(OC)cc3)nc(N3CCN(C(=O)/C=C/c4ccc(C)cc4)CC3)n2)cc1 | 0.01 | 3.58 | – |
| COc1ccc(-c2cc(-c3ccc(OC)cc3)nc(N3CCN(C(=O)/C=C/c4ccccc4)CC3)n2)cc1 | 0.01 | 4.09 | – |
| CCc1ccc(-c2cc(-c3ccc(OC)c(OC)c3)nc(N3CCN(C(=O)/C=C/c4ccc[nH]4)CC3)n2)cc1 | 0.01 | 0.72 | – |
| COc1ccc(-c2cc(-c3ccc(C)cc3)nc(N3CCN(C(=O)/C=C/c4ccc(C)cc4)CC3)n2)cc1 | 0.01 | 2.33 | – |
| COc1ccc(-c2cc(-c3ccc(C)cc3)nc(N3CCN(C(=O)/C=C/c4ccccc4)CC3)n2)cc1 | 0.01 | 2.72 | – |
| COc1cc(/C=C/C(=O)CC(=O)/C=C/c2ccc(O)c(OC)c2)ccc1O [CURCUMIN] | – | – | IC50 [15]: ~5 µM; Activity [16]: 100% |
| CO[C@H]1/C=C/O[C@@]2(C)Oc3c(C)c(O)c4c(O)c(c(/C=N/N5CCN(C)CC5)c(O)c4c3C2=O)NC(=O)/C(C)=C\C=C\[C@H](C)[C@H](O)[C@@H](C)[C@@H](O)[C@@H](C)[C@H](OC(C)=O)[C@@H]1C [RIFAMPIN] | – | – | IC50 [17]: 3.2 µM; IC50 [18]: 1.3 µM |
| C=C[C@H]1CN2CC[C@H]1C[C@H]2[C@H](O)c1ccnc2ccc(OC)cc12 [QUININE] | 0.01 | 0.11 | selectivity ratio at 24 h [4]: 1240 |
| Cc1ccc(/C=C/C(=O)N2CCN(c3nc(-c4ccc(Cl)cc4)cc(-c4cccnc4)n3)CC2)cc1 | 0.01 | 3.67 | – |
| CCc1ccc(-c2cc(-c3ccc(OC)c(OC)c3)nc(N3CCN(C(=O)/C=C/c4ccc(C)cc4)CC3)n2)cc1 | 0.01 | 1.56 | – |
| COc1ccc(-c2cc(-c3ccc(OC)cc3)nc(N3CCN(C(=O)/C=C/c4ccc[nH]4)CC3)n2)cc1 | 0.01 | 7.43 | IC50 at 48 h [3]: 3.69 µM; selectivity ratio at 24 h [4]: 0.5 |
| COc1ccc(-c2cc(-c3ccc(OC)cc3)nc(N3CCN(C(=O)/C=C/c4ccc(OC)c(OC)c4)CC3)n2)cc1 | 0.01 | 5 | – |
| COc1ccc(/C=C/C(=O)N2CCN(c3nc(-c4ccc(OC)cc4)cc(-c4ccc(OC)cc4)n3)CC2)cc1 | 0.01 | 5 | – |
| CC[C@@]1(O)C(=O)OCc2c1cc1n(c2=O)Cc2cc3ccccc3nc2-1 [CAMPTOTHECIN] | – | – | IC50 at 48 h [3]: 0.2 µM |
| CCc1ccc(-c2cc(-c3ccc(OC)c(OC)c3)nc(N3CCN(C(=O)/C=C/c4ccc(OC)cc4)CC3)n2)cc1 | 0.01 | 0.18 | IC50 at 48 h [3]: 3.36 µM; selectivity ratio at 24 h [4]: 18.6; Ka [5]: 5.92 10^6/M.s; Ka [6]: 6.24 10^6/M.s; Kd [7]: 9.29 10^-2(1/s); Kd [8]: 9.79 10^-2(1/s); Kd [9]: 0.00157 µM; Kd [10]: 0.0157 µM; Activity [11]: Active; Activity [12]: Active; Activity [13]: Dose-dependent-effect; Activity [14]: Dose-dependent-effect |
| COc1ccc(-c2cc(-c3ccc(C)cc3)nc(N3CCN(C(=O)/C=C/c4ccc(OC)c(OC)c4)CC3)n2)cc1 | 0.01 | 0.6 | IC50 at 48 h [3]: 0.93 µM; selectivity ratio at 24 h [4]: 1.54 |
| O=C(/C=C/c1ccccc1)N1CCN(c2nc(-c3cccnc3)cc(-c3ccoc3)n2)CC1 | 0.01 | 5 | – |
| COc1ccc(-c2cc(-c3ccc(Cl)cc3)nc(N3CCN(C(=O)/C=C/c4ccccc4)CC3)n2)cc1 | 0.01 | 6.02 | – |
| COc1ccc(-c2cc(-c3ccc(C)cc3)nc(N3CCN(C(=O)/C=C/c4ccc(Cl)cc4)CC3)n2)cc1 | 0.01 | 1.72 | – |
| CCc1ccc(-c2cc(-c3ccc(OC)c(OC)c3)nc(N3CCN(C(=O)/C=C/c4ccc(Cl)cc4)CC3)n2)cc1 | 0.01 | 0.2 | IC50 at 48 h [3]: 0.87 µM; selectivity ratio at 24 h [4]: 4.34 |
| COc1ccc(-c2cc(-c3ccc(OC)cc3)nc(N3CCN(C(=O)/C=C/c4ccc(Cl)cc4)CC3)n2)cc1 | 0.01 | 2.71 | – |

Reference: ChEMBL document CHEMBL6087422, “A promising class of antiprotozoal agents, design and synthesis of novel Pyrimidine-Cinnamoyl hybrids” (Eur J Med Chem, 2025)
